Experimental data: patent US7335654B2, “Phosphodiesterase 4 inhibitors” (Memory Pharmaceuticals Corporation, priority 2002, dated 2008)

Tests used:
[1] = tested on: rats (male Spraque-Dawley (Harlan)); assay: Radial arm maze task in rats, in vivo test for learning and memory; parameters: species or system rat; details: MK-801 0.1 mg/kg, i.p., compared to control (p<0.01)
Protocol: The test was performed as previously described (Zhang, H.-T., Crissman, A. M., Dorairaj, N. R., Chandler, L. J., and O'Donnell, J. M., Neuropsychopharmacology, 2000, 23, 198-204.). Five days after initial housing, rats (male Spraque-Dawley (Harlan) weighing 250 to 350 g) were placed in the eight-arm radial maze (each arm was 60×10×12 cm high; the maze was elevated 70 cm above the floor) for acclimation for two days. Rats were then placed individually in the center of the maze for 5 minutes with food pellets placed close to the food wells, and then, the next day, in the wells at the end of the arms; 2 sessions a day were conducted. Next, four randomly selected arms were then baited with one pellet of food each. The rat was restricted to the center platform (26 cm in diameter) for 15 seconds and then allowed to move freely throughout the maze until it collected all pellets of food or 10 minutes passed, whichever came first. Four parameters were recorded: 1) working memory errors, i.e., entries into baited arms that had already been visited during the same trial; 2) reference memory errors, i.e., entries into unbaited arms; 3) total arm entries; and 4) the test duration (seconds), i.e., the time spent in the collection of all the pellets in the maze. […]
(§1) All data were analyzed by analyses of variance (ANOVA); individual comparisons were made using Kewman-Keuls tests. […]

[2] = tested on: rat (Male Spraque-Dawley (Harlan)); assay: Passive avoidance in rats, in vivo test for learning and memory; details: retention test 24 hours after electric shock; MK-801 0.1 mg/kg pretreatment compared to the vehicle (p<0.001)
Protocol: The test was performed as previously described (Zhang, H.-T., Crissman, A. M., Dorairaj, N. R., Chandler, L. J., and O'Donnell, J. M., Neuropsychopharmacology, 2000, 23, 198-204.). The apparatus (Model E10-16SC, Coulbourn Instruments, Allentown, Pa.) consisted of a two-compartment chamber with an illuminated compartment connected to a darkened compartment by a guillotine door. The floor of the darkened compartment consisted of stainless steel rods through which an electric foot-shock could be delivered from a constant current source. All experimental groups were first habituated to the apparatus the day before the start of the experiment. During the training, the rat (Male Spraque-Dawley (Harlan) weighing 250 to 350 g) was placed in the illuminated compartment facing away from the closed guillotine door for 1 minute before the door was raised. The latency for entering the darkened compartment was recorded. After the rat entered the darkened compartment, the door was closed and a 0.5 mA electric shock was administered for 3 seconds. […] The latency for entering the darkened compartment was recorded for up to 180 seconds, at which time the trial was terminated.
as §1

SMILES: C[C@]12N[C@H](Cc3ccccc31)c1ccccc12 [MK-801]
- frequency of reference memory errors [1]: increased
- frequency of working memory errors [1]: increased
- latency for entering the darkened compartment [2]: markedly reduced
